# Test results from patent US7858618B2, “Compounds” (Boehringer Ingelheim International GmbH, priority 2006, dated 2010).
# Assays:
# [1] = target: T1, hBK1 receptor (Homo sapiens, UniProt P46663); experiment: hBK1 receptor binding (displacement of [3H]-kallidin (DesArg10, Leu9) from membranes of CHO cells expressing the hBK1 receptor); conditions: CHO cell membranes expressing hBK1 receptor; 0.5 to 1.0 nM [3H]-kallidin (DesArg10, Leu9); 60 minutes at room temperature
# T1 construct: expressed in transfected cells; host or cells: CHO cells
# T1 sequence (P46663 1-353): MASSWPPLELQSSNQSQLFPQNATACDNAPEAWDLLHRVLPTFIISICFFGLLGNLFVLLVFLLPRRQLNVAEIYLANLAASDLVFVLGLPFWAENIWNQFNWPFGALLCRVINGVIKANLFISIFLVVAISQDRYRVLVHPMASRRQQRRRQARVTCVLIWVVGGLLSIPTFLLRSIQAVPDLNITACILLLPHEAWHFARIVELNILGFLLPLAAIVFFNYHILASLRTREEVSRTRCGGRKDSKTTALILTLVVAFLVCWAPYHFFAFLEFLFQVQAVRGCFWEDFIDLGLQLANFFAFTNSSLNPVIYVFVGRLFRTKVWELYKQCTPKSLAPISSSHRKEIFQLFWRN
# Procedure: Description of the Method of hBK1 Receptor Binding
# CHO cells expressing the hBK1 receptor are cultivated in Dulbecco's modified medium. The medium from confluent cultures is removed and the cells are washed with PBS buffer, scraped off and isolated by centrifugation. The cells are then homogenized in suspension and the homogenate is centrifuged and resuspended. The protein content is determined and the membrane preparation obtained in this manner is then frozen at −80° C.
# After thawing, 200 μl of the homogenate (50 to 100 μg of proteins/assay) are incubated at room temperature with 0.5 to 1.0 nM of kallidin (DesArg10, Leu9), [3,4-prolyl-3,43H(N)] and increasing concentrations of the test substance in a total volume of 250 μl for 60 minutes. The incubation is terminated by rapid filtration through GF/B glass fibre filters which had been pretreated with polyethyleneimine (0.3%). The protein-bound radioactivity is measured in a TopCount NXT. Non-specific binding is defined as radioactivity bound in the presence of 1.0 μM of kallidin (DesArg10, Leu9), [3,4-prolyl-3,43H(N)]. The concentration/binding curve is analysed using a computer-assisted nonlinear curve fitting. The Ki which corresponds to the test substance is determined using the data obtained in this manner. […]
Compound,Ki [1] [nM],melting point [°C]
CCN1CCC(N2CC[C@@H](N(C)C(=O)COCCN(C)S(=O)(=O)c3c(C)cc(OC)cc3C)C2)CC1 [(400)],0.79,
CCN1CCC(N2CC[C@H](N(C)C(=O)COCCN(C)S(=O)(=O)c3c(C)cc(OC)cc3C)C2)CC1 [(401)],2.7,
COc1cc(C)c(S(=O)(=O)N(C)CCOCC(=O)N(C)Cc2ccc(OCC3CCCN3C)cc2)c(C)c1 (stereo not shown) [(402)],9.3,
COc1cc(C)c(S(=O)(=O)N(C)CCOCC(=O)N(C)Cc2ccc3[nH]c(CN(C)C)nc3c2)c(C)c1 [(404)],2.8,
COc1cc(C)c(S(=O)(=O)N(C)CCOCC(=O)N(C)C2CCc3cc(OCCN4CCCC4)ccc32)c(C)c1 (stereo not shown) [(418)],1.2,
COc1cc(C)c(S(=O)(=O)N(C)CCOCC(=O)N(C)C2CCC(N3CCC(CN4CCCC4)CC3)CC2)c(C)c1 (stereo not shown) [(419)],0.65,
COc1cc(C)c(S(=O)(=O)N(C)CCOCC(=O)N(C)CC2CCC(N3CCN(C)CC3)CC2)c(C)c1 (stereo not shown) [(420)],9.1,
COc1cc(C)c(S(=O)(=O)N(C)CCOCC(=O)N(C)[C@@H]2CCC[C@H](N3CCN(C)CC3)C2)c(C)c1 [(421)],8.7,
COc1cc(C)c(S(=O)(=O)N(C)CCOCC(=O)N(C)C[C@]2(C)CC[C@H](CN3CCCC3)C2(C)C)c(C)c1 [(423)],3.4,
COc1cc(C)c(S(=O)(=O)N(C)CCOCC(=O)N(C)C2CCc3cc(CN4CCCC4)ccc32)c(C)c1 (stereo not shown) [(424)],1.4,
COc1cc(C)c(S(=O)(=O)N(C)CCOCC(=O)N(C)C[C@@H]2CC[C@H](CN3CCCC3)C2)c(C)c1 [(425)],8.3,
COc1cc(C)c(S(=O)(=O)N(C)CCOCC(=O)N(C)C[C@H]2CC[C@@H](N(C)CCN(C)C)CC2)c(C)c1 [(428)],6.3,
COc1cc(C)c(S(=O)(=O)N(C)CCOCC(=O)N(C)[C@H]2CC[C@@H](CCN3CCCC3)CC2)c(C)c1 [(435)],1.5,
COc1cc(C)c(S(=O)(=O)N(C)CCOCC(=O)N(C)[C@H]2CC[C@H](CCN3CCCC3)CC2)c(C)c1 [(439)],7.5,
COc1cc(C)c(S(=O)(=O)N(C)CCOCC(=O)N(C)[C@H]2CC[C@@H](CN3CC[C@@H](N(C)C)C3)CC2)c(C)c1 [(441)],4.6,
COc1cc(C)c(S(=O)(=O)N(C)CCOCC(=O)N(C)[C@H]2CC[C@@H](CN3CCC(N(C)C)C3)CC2)c(C)c1 (stereo partly shown) [(444)],6.9,
COc1cc(C)c(S(=O)(=O)N(C)CCOCC(=O)N(C)Cc2ccc(N3CCC(N4CCCC4)C3)cc2Cl)c(C)c1 (stereo not shown) [(445)],5.6,
COc1cc(C)c(S(=O)(=O)N(C)CCOCC(=O)N(C)[C@@H]2CCN([C@H]3CC[C@@H](N4CCCC4)CC3)C2)c(C)c1 [(448)],0.82,
COc1cc(C)c(S(=O)(=O)N(C)CCOCC(=O)N(C)C2CCCN(C3CCN(C)CC3)CC2)c(C)c1 (stereo not shown) [(451)],9,
COc1cc(C)c(S(=O)(=O)N(C)CCOCC(=O)N(C)[C@@H]2CCN(C3CCN(CC4CC4)CC3)C2)c(C)c1 [(458)],4.3,
COc1cc(C)c(S(=O)(=O)N(C)CCOCC(=O)N(C)[C@H]2CC[C@@H](CCN(C)CC3CC3)CC2)c(C)c1 [(463)],2,
COc1cc(C)c(S(=O)(=O)N(C)CCOCC(=O)N(C)[C@H]2CC[C@@H](CCN3CCN(C)CC3)CC2)c(C)c1 [(464)],1.5,
COc1cc(C)c(S(=O)(=O)N(C)CCOCC(=O)N(C)[C@H]2CCN(C3CCN(CC4CC4)CC3)C2)c(C)c1 [(465)],3.8,
COc1cc(C)c(S(=O)(=O)N(C)CCOCC(=O)N(C)C2CCC(N3CCC(N4CCCC4)CC3)CC2)c(C)c1 (stereo not shown) [(468)],1,
COc1cc(Cl)cc(Cl)c1S(=O)(=O)N(C)CCOCC(=O)N(C)[C@@H]1CCN(C2CCN(C)CC2)C1 [(469)],8,
COc1cc(C)c(S(=O)(=O)N(C)CCOCC(=O)N(C)[C@H]2CC[C@@H](CN3CC[C@H](N4CCCC4)C3)CC2)c(C)c1 [(471)],4.1,
COc1cc(C)c(S(=O)(=O)N(C)CCOCC(=O)N(C)[C@H]2CC[C@@H](CN3CC[C@@H](N4CCCC4)C3)CC2)c(C)c1 [(472)],0.68,
COc1cc(C)c(S(=O)(=O)N(C)CCOCC(=O)N(C)[C@H]2CC[C@@H](CN3CCC[C@H](N(C)C)C3)CC2)c(C)c1 [(473)],1.8,

Compound,Ki [1] [nM],melting point [°C]
COc1cc(C)c(S(=O)(=O)N(C)CCOCC(=O)N(C)C[C@H]2CC[C@@](C)(CN3CCCC3)C2(C)C)c(C)c1 [(474)],1.4,
COc1cc(C)c(S(=O)(=O)N(C)CCOCC(=O)N(C)CC2CCN(C(=O)CCN3CCCC3)CC2)c(C)c1 [(475)],2.4,
COc1cc(C)c(S(=O)(=O)N(C)CCOCC(=O)N(C)[C@H]2CC[C@@H](CN3CCC[C@@H](N(C)C)C3)CC2)c(C)c1 [(476)],2.35,
COc1cc(C)c(S(=O)(=O)N(C)CCOCC(=O)N(C)C2CCC(C3CCN(C)CC3)CC2)c(C)c1 (stereo not shown) [(477)],5.8,
COc1cc(C)c(S(=O)(=O)N(C)CCOCC(=O)N(C)[C@@H]2CCN(C3CCN(C4CCCC4)CC3)C2)c(C)c1 [(478)],1,
COc1cc(C)c(S(=O)(=O)N(C)CC(=O)NCC(=O)N(C)Cc2ccc(NCCN(C)C)cc2)c(C)c1 [(492)],3.2,
COc1cc(C)c(S(=O)(=O)N(C)CCOCC(=O)N(C)C[C@@H]2CCN(CCCN3CCCC3)C2)c(C)c1 [(576)],0.85,
COc1cc(C)c(S(=O)(=O)N(C)CCOCC(=O)N(C)[C@@H]2CCN(C3CCN(C4CCC4)CC3)C2)c(C)c1 [(577)],0.34,
COc1cc(C)c(S(=O)(=O)N(C)CCOCC(=O)N(C)[C@@H]2CCN(C(=O)CCN3CCCC3)C2)c(C)c1 [(580)],6.2,
COc1cc(C)c(S(=O)(=O)N(C)CCOCC(=O)N(C)C[C@]2(C)CC[C@H](CN3CCC3)C2(C)C)c(C)c1 [(582)],9.3,
COc1cc(C)c(S(=O)(=O)N(C)CCOCC(=O)N(C)C[C@H]2CC[C@@H](N3CCN(C)CC3)CC2)c(C)c1 [(584)],9,
COc1cc(C)c(S(=O)(=O)N(C)CCOCC(=O)N(C)CC2CCC(N3CCC(N(C)C)CC3)CC2)c(C)c1 (stereo not shown) [(586)],5.1,
COc1cc(C)c(S(=O)(=O)N(C)CCOCC(=O)N(C)CC2CCC(N3CCCC(N(C)C)C3)CC2)c(C)c1 (stereo not shown) [(587)],9.5,
COc1cc(C)c(S(=O)(=O)N(C)CCOCC(=O)N(C)C2CCC(N3CCC(C4CCN(C)CC4)CC3)CC2)c(C)c1 (stereo not shown) [(588)],1.5,
COc1cc(C)c(S(=O)(=O)N(C)CCOCC(=O)N(C)[C@H]2CC[C@@H](N3CCN(C)CC3)CC2)c(C)c1 [(589)],5.1,
COc1cc(C)c(S(=O)(=O)N(C)CCOCC(=O)N(C)C[C@H]2CC[C@H](NCCN3CCCC3)CC2)c(C)c1 [(591)],1.9,
COc1cc(C)c(S(=O)(=O)N(C)CCOCC(=O)N(C)[C@H]2CC[C@@H](CCN3CCC3)CC2)c(C)c1 [(592)],2.8,
COc1cc(C)c(S(=O)(=O)N(C)CCOCC(=O)N(C)[C@H]2CC[C@@H](OCCN(C)C)CC2)c(C)c1 [(613)],9.7,
COc1cc(C)c(S(=O)(=O)N(C)CCOCC(=O)N(C)[C@H]2CC[C@@H](OCCN3CCCC3)CC2)c(C)c1 [(614)],2,
COc1cc(C)c(S(=O)(=O)N(C)CCOCC(=O)N(C)C(C)[C@H]2CC[C@H](CN3CCCC3)CC2)c(C)c1 (stereo partly shown) [(616)],3.7,
COc1cc(C)c(S(=O)(=O)N(C)CCOCC(=O)N(C)[C@H]2CC[C@@H](CCN3CCOCC3)CC2)c(C)c1 [(619)],1.2,
COc1cc(C)c(S(=O)(=O)N(C)CCOCC(=O)N(C)[C@H]2CC[C@@H](CCN(C)C)CC2)c(C)c1 [(620)],5.9,
COc1cc(C)c(S(=O)(=O)N(C)CCOCC(=O)N(C)C[C@H]2CC[C@@](C)(CN3CCC3)C2(C)C)c(C)c1 [(621)],5.8,
COc1cc(C)c(S(=O)(=O)N(C)CCOCC(=O)N(C)[C@@H]2CCN(C(=O)CCN3CCCCC3)C2)c(C)c1 [(623)],3.4,
CCN(CC)CCC(=O)N1CC[C@@H](N(C)C(=O)COCCN(C)S(=O)(=O)c2c(C)cc(OC)cc2C)C1 [(624)],8,
COc1cc(C)c(S(=O)(=O)N(C)CCOCC(=O)N(C)C2CCN(C(=O)CCN3CCCC3)CC2)c(C)c1 [(630)],5.5,
CCN(CC)CC1CCN(c2ccc(NC(=O)CCN(C)S(=O)(=O)c3c(C)cc(OC)cc3C)nn2)CC1 [Example 87],,173
